Reference: patent US8202910B2 (Sequella, Inc., priority 2006, dated 2012)
Values after ≈ are worked out from the molar mass of the structure shown. Where two headings read alike, the source gives them in different places.

What was measured:
cells = experiment: LD50 for selectivity index (Table 10); type: cell-based, Mycobacterium tuberculosis
From the text: Table 10 lists MIC and LD50 data for selected compounds. […] Table 11 lists MIC data for purified substituted ethylene diamines in comparison to ethambutol (EMB).

M. tuberculosis H37Rv [1] = experiment: MIC by BACTEC 460; type: cell-based, Mycobacterium tuberculosis; conditions: Mycobacterium tuberculosis, H37RV; read-out: MIC (BACTEC)
[2] = system: monkey kidney cells (Vero); experiment: In vitro toxicity, Vero cells; type: cell-based; conditions: Primates
Method: Twenty six compounds (including 37, 59 and 109) were tested in an in vitro model of toxicity using monkey kidney cells (Vero) and human cervical cancer cells (HeLa) using methods well known to those skilled in the art. The data from this toxicity testing and the MIC data were used to calculate a selectivity index (SI), the ratio of IC50:MIC (Table 15). Selectivity Indexes were ranging from 1.76 to 16.67.

M. tuberculosis H37Rv [3] = experiment: In vivo efficacy, mice infected i.v. with M. tuberculosis, CFU in spleen and lungs; set-up: species or system C57BL/6 mice
in vitro = in vitro ADME; conditions: plasma
dopamine receptor D1 = target: T1, dopamine receptor D1 (Homo sapiens, UniProt P21728); experiment: CEREP receptor binding, D1; conditions: tested at 10 μM; read-out: inhibition of control specific binding
T1 construct: CEREP (contract testing)
From the text: (§1) In vitro testing for safety pharmacology and early ADMET (Absorption, Distribution, Metabolism, Excretion, Toxicity) studies of compound 109 were contracted out to CEREP (15318 NE 95th Street, Redmond, Wash., 98052, USA www.cerep.com) under a service agreement and included evaluation of inhibitory binding to a panel of 27 standard receptors and three transporters (See FIG. 60 (Table 31) and FIG. 61 (Table 32)) which included: adenosine receptors (A1 and A2A), adrenergic receptors (alpha 1, alpha 2, beta 1), angiotensin II receptor (AT1), benzodiazapene receptor (BZD), bradykinin receptor (B2), cholecystokinin receptor (CCK1), dopamine receptors (D1, D2S), endothelin receptor (ETA), GABA receptor (GABA), glutamate receptor (NMDA), histamine receptor (H1 central), melanocortin receptor (MC4), muscarinic receptor (M, non-selective), neurokinin receptor (NK1), neuropeptide Y receptor (Y), nicotinic receptor (neuronal, alpha-BGTX-insensitive), opiate receptor (non-selective opiate), orphanin receptor (ORL1), phencyclidine receptor (PCP), serotonin receptor (5-HT), sigma receptor (sigma non-selective), steroid receptor (glucocorticoid receptor, GR), and NE, DA, and 5-HT transporters.
(§2) The specific ligand binding to the receptors is defined as the difference between the total binding and the nonspecific binding determined in the presence of an excess of unlabelled ligand.

[4] = target: T2, melanocortin MC4 receptor (Homo sapiens, UniProt P32245); experiment: CEREP receptor binding, MC4; conditions: tested at 10 μM; read-out: inhibition of control specific binding
T2 construct: CEREP (contract testing)
From the text: as §1, §2

[5] = system: muscarinic receptor (M, non-selective); experiment: CEREP receptor binding, muscarinic M; conditions: tested at 10 μM
From the text: as §1, §2

[6] = system: sigma receptor (sigma non-selective); experiment: CEREP receptor binding, sigma; conditions: tested at 10 μM
From the text: as §1, §2

[7] = target: T3, Norepinephrine NE transporter (Homo sapiens, UniProt P23975); experiment: CEREP transporter binding, NE; conditions: tested at 10 μM; read-out: inhibition of control specific binding
T3 construct: CEREP (contract testing)
From the text: as §1, §2

[8] = target: T4, Serotonin 5-HT transporter (Homo sapiens, UniProt P31645); experiment: CEREP transporter binding, 5-HT; conditions: tested at 10 μM; read-out: inhibition of control specific binding
T4 construct: CEREP (contract testing)
From the text: as §1, §2

Aspergillus fumigatus = experiment: Spectrum of activity MIC, broth microdilution NCCLS M38-A (mold); type: cell-based; conditions: three isolates
Method: Compound 109 was tested against a representative panel of commonly encountered clinical microorganisms comprising opportunistic pathogens, target pathogens and normal human flora. The spectrum of activity of compound 109 was evaluated by performing recommended broth microdilution methods. NCCLS M27-A2, 2003 for yeast and NCCLS M38-A, 2003 for mold.

M. fortuitum = experiment: Spectrum of activity MIC, rapid-grower, broth microdilution (NCCLS M24-A); type: cell-based; conditions: Mycolicibacterium fortuitum; all strains tested
[9] = system: RIF^R M. tuberculosis strain 2482; type: cell-based
[10] = system: M. tuberculosis H37Rv (Pasteur); experiment: Rapid in vivo model of TB, body weight of infected mice; set-up: species or system C3H female mice
M. tuberculosis H37Rv [11] = experiment: Standard chronic mouse model of tuberculosis, CFU in lung; type: in vivo, C57BL/6 female mice
[12] = Metabolism by human liver microsomes; type: in vitro ADME; conditions: after 40 min incubation
From the text: (§3) Two of the groups contained oxidized metabolites. […] Based on the finding that SQ109 was metabolized rapidly by CYP, it is possible that its antimycobacterial activity may come from one of its metabolites. It is conceivable that SQ109 is a prodrug and requires activation by mycobacterial CYP. We speculate that when SQ109 is used in combination with rifampicin, the latter induces certain CYP activity within the Mycobacteria. Elevated CYP activity activates the SQ109 prodrug more efficiently, resulting in an apparent synergistic activity of the two drugs.

human CYP2D6 = human CYP2D6 (Homo sapiens, UniProt P10635); experiment: Metabolism by CYP2D6; type: in vitro ADME
From the text: as §3

human CYP2C19 = human CYP2C19 (Homo sapiens, UniProt P33261); experiment: Metabolism by CYP2C19; type: in vitro ADME
From the text: as §3

M. smegmatis = experiment: Spectrum (unpublished data); type: cell-based

T2 sequence (P32245 whole entry): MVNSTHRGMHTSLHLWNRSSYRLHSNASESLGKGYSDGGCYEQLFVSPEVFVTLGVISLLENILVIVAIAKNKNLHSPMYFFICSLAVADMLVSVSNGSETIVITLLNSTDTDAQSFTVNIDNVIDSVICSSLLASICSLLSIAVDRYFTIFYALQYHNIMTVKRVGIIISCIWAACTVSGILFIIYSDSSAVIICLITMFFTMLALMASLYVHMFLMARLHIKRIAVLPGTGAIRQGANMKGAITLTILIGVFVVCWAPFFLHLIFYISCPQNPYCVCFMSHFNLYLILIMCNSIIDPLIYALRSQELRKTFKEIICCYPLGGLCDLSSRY
T1 sequence (P21728 whole entry): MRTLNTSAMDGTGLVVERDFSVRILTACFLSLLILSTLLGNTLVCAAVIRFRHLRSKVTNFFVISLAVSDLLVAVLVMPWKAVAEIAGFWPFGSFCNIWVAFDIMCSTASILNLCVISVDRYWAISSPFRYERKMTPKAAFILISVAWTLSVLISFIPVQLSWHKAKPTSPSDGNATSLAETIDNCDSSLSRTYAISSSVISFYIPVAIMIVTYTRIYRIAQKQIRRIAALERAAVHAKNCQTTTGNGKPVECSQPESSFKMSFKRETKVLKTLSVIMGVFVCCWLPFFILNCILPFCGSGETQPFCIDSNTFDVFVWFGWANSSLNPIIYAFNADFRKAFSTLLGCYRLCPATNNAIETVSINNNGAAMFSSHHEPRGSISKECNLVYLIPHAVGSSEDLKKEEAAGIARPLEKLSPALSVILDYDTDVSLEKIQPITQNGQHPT
T4 sequence (P31645 whole entry): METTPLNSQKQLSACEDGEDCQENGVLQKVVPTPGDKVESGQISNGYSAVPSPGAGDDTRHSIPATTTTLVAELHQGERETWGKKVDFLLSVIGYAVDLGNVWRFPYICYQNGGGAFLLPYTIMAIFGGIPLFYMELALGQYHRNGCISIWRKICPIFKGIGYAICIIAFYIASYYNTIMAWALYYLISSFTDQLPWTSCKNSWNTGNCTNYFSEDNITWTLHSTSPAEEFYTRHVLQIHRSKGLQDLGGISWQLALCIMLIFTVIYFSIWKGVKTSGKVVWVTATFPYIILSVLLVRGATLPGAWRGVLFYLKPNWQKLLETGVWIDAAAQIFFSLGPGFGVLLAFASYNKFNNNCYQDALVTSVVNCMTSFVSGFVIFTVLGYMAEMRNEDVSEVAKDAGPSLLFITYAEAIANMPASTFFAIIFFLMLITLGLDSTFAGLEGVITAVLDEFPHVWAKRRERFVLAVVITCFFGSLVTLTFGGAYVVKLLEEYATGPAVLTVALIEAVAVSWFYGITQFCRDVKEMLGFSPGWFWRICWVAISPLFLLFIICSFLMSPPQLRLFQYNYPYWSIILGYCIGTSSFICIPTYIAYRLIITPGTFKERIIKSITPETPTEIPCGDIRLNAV
T3 sequence (P23975 whole entry): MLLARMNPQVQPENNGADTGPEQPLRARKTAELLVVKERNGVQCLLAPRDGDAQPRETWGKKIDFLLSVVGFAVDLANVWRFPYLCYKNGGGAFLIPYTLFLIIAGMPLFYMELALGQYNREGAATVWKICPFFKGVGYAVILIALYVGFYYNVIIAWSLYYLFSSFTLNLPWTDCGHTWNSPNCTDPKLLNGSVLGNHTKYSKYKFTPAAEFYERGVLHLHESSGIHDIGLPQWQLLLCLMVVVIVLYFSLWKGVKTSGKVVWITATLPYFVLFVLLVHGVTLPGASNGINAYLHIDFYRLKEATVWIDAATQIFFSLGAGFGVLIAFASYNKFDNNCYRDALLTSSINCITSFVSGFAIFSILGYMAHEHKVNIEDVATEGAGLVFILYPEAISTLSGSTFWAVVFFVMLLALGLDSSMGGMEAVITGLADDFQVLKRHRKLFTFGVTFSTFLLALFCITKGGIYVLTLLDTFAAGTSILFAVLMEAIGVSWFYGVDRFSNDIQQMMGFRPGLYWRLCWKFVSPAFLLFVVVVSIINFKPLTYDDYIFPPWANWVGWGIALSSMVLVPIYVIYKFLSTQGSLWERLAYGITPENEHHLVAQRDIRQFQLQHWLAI
Chain of human CYP2C19 (P33261 whole entry): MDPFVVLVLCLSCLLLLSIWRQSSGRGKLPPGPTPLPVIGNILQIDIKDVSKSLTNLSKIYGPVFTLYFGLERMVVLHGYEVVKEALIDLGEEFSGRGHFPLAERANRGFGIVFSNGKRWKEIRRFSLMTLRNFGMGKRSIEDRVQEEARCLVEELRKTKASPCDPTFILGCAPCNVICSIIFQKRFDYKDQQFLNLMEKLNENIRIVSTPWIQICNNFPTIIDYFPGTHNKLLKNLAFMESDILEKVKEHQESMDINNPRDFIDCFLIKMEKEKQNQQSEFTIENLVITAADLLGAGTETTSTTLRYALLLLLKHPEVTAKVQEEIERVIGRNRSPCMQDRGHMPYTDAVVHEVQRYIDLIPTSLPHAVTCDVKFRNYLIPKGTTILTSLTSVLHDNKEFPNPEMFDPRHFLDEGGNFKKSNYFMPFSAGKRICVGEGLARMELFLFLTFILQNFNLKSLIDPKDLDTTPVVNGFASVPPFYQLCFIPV
Chain of human CYP2D6 (P10635 whole entry): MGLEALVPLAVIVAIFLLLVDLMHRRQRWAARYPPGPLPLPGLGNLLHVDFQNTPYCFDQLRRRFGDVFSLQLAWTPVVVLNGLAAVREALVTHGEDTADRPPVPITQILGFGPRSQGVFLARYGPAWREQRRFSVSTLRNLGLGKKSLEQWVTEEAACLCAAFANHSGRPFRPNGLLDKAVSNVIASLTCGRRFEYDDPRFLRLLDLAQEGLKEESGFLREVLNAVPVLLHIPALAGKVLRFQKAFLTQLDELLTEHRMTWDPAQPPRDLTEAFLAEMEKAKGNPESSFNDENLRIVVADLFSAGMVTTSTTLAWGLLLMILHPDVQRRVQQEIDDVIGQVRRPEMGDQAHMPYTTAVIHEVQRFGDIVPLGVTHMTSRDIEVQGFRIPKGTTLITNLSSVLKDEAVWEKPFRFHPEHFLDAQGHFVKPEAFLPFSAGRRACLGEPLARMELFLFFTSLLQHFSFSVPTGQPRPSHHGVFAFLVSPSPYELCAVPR

With `CC(C)=CCC/C(C)=C/CNCCNC1C2CC3CC(C2)CC1C3` (stereo not drawn) [Compound 109, N-Geranyl-N′-(2-adamanthyl)ethane-1,2-diamine] the “SI (Selectivity Index)” value (cells; LD50 : MIC) was 16.39, the “LD50” value (cells; concentration at which 50% of the cells are killed) was 32 µM and the “LD50” value (cells; from uM and MW) was 14.4 µg/mL. The MIC (M. tuberculosis H37Rv [1]) was 0.32 µg/mL (≈ 0.968 µM), the IC50 [2] was 26 µM and the “difference with untreated control, spleen and lung” value (M. tuberculosis H37Rv [3]; 0.1 mg/kg after 4 weeks of therapy, 5×10^6 CFU) was “minimal but sufficient difference with untreated control”. The “activity in the spleen compared with EMB” value (M. tuberculosis H37Rv [3]; 1 mg/kg and 10 mg/kg, 5×10^5 CFU, chemotherapy from day 20) was “equal to that of EMB at 100 mg/kg”, the “activity in the lung compared with EMB” value (M. tuberculosis H37Rv [3]; 10 mg/kg after 4 and 6 weeks, 5×10^5 CFU) was “more effective than EMB at 100 mg/kg” and the “activity in spleen and lung compared with EMB” value (M. tuberculosis H37Rv [3]; 10 mg/kg and 25 mg/kg, shorter model, 5×10^6 CFU, 4 weeks) was “equal to that of EMB at 100 mg/kg”. For the same molecule, the “activity (CFUs in spleen and lungs) compared with ethambutol” value (M. tuberculosis H37Rv [3]; doses 1 and 10 mg/kg, orally by gavage) was “equal to that of ethambutol at 100 mg/kg”, the fraction unbound at 20 ng/ml (in vitro) was 0.85 and the fraction unbound at 200 ng/ml (in vitro) was 0.26. It also gave a fraction unbound at 2000 ng/ml (in vitro) of 0.52, an inhibition at 10 µM (dopamine receptor D1) of 51% and an inhibition at 10 µM [4] of 90%. The “inhibition of control specific binding” value [5] was 96%, the “inhibition of control specific binding” value [6] was 106% and the inhibition at 10 µM [7] was 87%. For the same molecule, the inhibition at 10 µM [8] was 95%, the MIC (Aspergillus fumigatus) was 16 µg/mL (≈ 48.4 µM) and the MIC (M. fortuitum) was 1 µg/mL (≈ 3.03 µM). The x/y quotient ([9]; 0.25 MIC SQ109 (0.08 mg/L) + 10 mg/L rifampicin) was 0.66, the x/y quotient ([9]; 0.5 MIC SQ109 + rifampicin 25 mg/L) was 0.497 and the x/y quotient ([9]; 0.5 MIC SQ109 + rifampicin 50 mg/L) was 0.39. The x/y quotient ([9]; 0.5 MIC SQ109 + rifampicin 100 mg/L) was 0.33, the growth inhibition ([9]; 0.5 MIC SQ109 added to 100 mg/L rifampicin) was “more than 99%” and the average body weight ([10]; SQ109 10 mg/kg + RIF 2 mg/kg orally, 6 mice, by the 3 wk, uninfected control 24.5 g, untreated 17 g) was 24.3 grams. The “body weight of infected mice” value ([10]; SQ109 in combination with PZA (50 mg/kg)) was “slight improvement”, the “body weight of infected mice” value ([10]; compound 109 (10 mg/kg) in combination with Rifampicin (2 mg/kg)) was “comparable to non-infected controls” and the “body weight of infected mice” value ([10]; compound 109 (10 mg/kg) in combination with Rifampicin (2 mg/kg), listed as SQ109) was “fully prevented body weight loss”. For the same molecule, the “body weight of infected mice” value ([10]; compound 109 in combination with EMB (10 mg/kg)) was “closer to placebo treated controls”, the “body weight of infected mice” value ([10]; compound 109 in combination with EMB (10 mg/kg), listed as SQ109) was “No effect” and the “body weight of infected mice” value ([10]; compound 109 in combination with INH (1 mg/kg)) was “comparable to non-infected controls”. The “body weight of infected mice” value ([10]; compound 109 in combination with INH (1 mg/kg), listed as SQ109) was “enhanced activity”, the “body weight of infected mice” value ([10]; compound 109 in combination with Moxi (10 mg/kg)) was “closer to placebo treated controls” and the “body weight of infected mice” value ([10]; compound 109 in combination with Moxi (10 mg/kg), listed as SQ109) was “antagonistic effect”. For the same molecule, the average weight ([10]; single drug alone (SQ109 10 mg/kg; RIF 2 mg/kg), by the 3 wk) was 21.3 g, the “body weight of infected mice” value ([10]; single drug alone (SQ109 10 mg/kg; Rifampin 2 mg/kg)) was “closer to placebo treated controls” and the CFU in lung (M. tuberculosis H37Rv [11]; INH+RIF+SQ109 at 25, 20 and 10 mg/kg, wk 4) was 3.2 log10CFU. For the same molecule, the CFU in lung (M. tuberculosis H37Rv [11]; SQ109 by itself, 4 week therapy, control untreated 8.1) was 6.6 log10CFU, the CFU in lung (M. tuberculosis H37Rv [11]; combination SQ109+RIF at 10 and 20 mg/kg, 4 week therapy) was 4.8 log10 and the SQ109 remaining [12] was 8%. The “metabolism by CYP” value (human CYP2D6) was “metabolized”, the “metabolism by CYP” value (human CYP2C19) was “metabolized” and the activity (M. smegmatis) was “much less active”.
